Assay results: US12295997B2, “Prostate neoantigens and their uses” (Janssen Biotech, Inc., priority 2020, dated 2025)

Tested on: CD8+ and CD4+ T cells (autologous CD3+ Pan-T cells isolated from human normal PBMCs)
Experiment: Exogenous autologous normal donor restimulation assay (15-mer overlapping peptide pools on CD1c+ dendritic cells, TNFα/IFNγ flow cytometry)
Type: cell-based
Conditions: 15-mer overlapping peptide pool; for Maximum Fold Change Over Background CD4+ cells / Maximum Fold Change Over Background CD8+ cells / Maximum Frequency of TNFα/IFNγ Double Positive CD4+ T cells / Maximum Frequency of TNFα/IFNγ Double Positive CD8+ T cells: Table 25; for Maximum Fold Change Over Background CD4+ cells: TNFα+IFNγ+ CD4+ T cells; for Maximum Fold Change Over Background CD4+ cells / Maximum Fold Change Over Background CD8+ cells: highest fold change over negative control across normal donors; for Maximum Fold Change Over Background CD8+ cells: TNFα+IFNγ+ CD8+ T cells; for Maximum Frequency of TNFα/IFNγ Double Positive CD4+ T cells / Maximum Frequency of TNFα/IFNγ Double Positive CD8+ T cells: highest frequency across normal donors; for Max. Fold Change over background CD4+ TNFαINFγ double positive DP / Max. Fold Change over background CD8+ TNFαINFγ double positive DP / Max. Frequency of CD4+ TNFαINFγ DP / Max. Frequency of CD8+ TNFαINFγ DP: Table 28, additional neoantigens, highest across normal donors
Protocol: CD1c+ Dendritic Cells (DC) isolated from human normal PBMCs were thawed using media (IMDM (Gibco) supplemented with glutamine, HEPES, 5% human serum (Sigma), and 1× Pen-Strep). DC cells were resuspended in media supplemented with IL-4 (Peprotech, 80 ng/mL) and GM-CSF (Gibco, 80 ng/mL), plated in 6 well microplates, and rested overnight at 37° C. (5% CO2). The following day, DC cells were counted and plated in a 96 well round bottom microplate at a concentration of 30,000 viable cells per well. Lyophilized peptides (15-mer overlapping peptides) were solubilized in 100% DMSO and pooled by neoantigen to between 5 mg/mL and 20 mg/mL. Neoantigen peptides pools were added to DCs for a final concentration of […] and rested for 2 hours at 37° C. (5% CO2). CEF Peptide Pool “Plus” (Cellular Technologies, Ltd.) was utilized as a positive control and DMSO at the same final concentration as the experimental peptides was utilized as a negative control. After 2 hours, DC cells were irradiated with 50 gray of ionizing radiation. Autologous CD3+ Pan-T cells isolated from human normal PBMCs were thawed using media. Following irradiation, autologous Pan-T cells were added to the irradiated DCs at 300,000 viable cells per well. Human IL-15 (Peprotech) was added to all wells at final concentration of 10 ng/mL.
Plates were incubated at 37° C. (5% CO2) for a total of 12 days. Media was refreshed every 2-3 days with IL-15 (10 ng/mL final concentration) and IL-2 (R&D systems, 10 IU/mL final concentration). On day 11 cells were re-stimulated with identical experimental peptide pools or controls, at same concentration as peptide stimulation on Day 1. Protein Inhibitor Cocktail (eBioscience) was added to every well and plate was incubated overnight at 37° C. (5% CO2).
On day 12, cells were stained for intracellular flow cytometry analysis. The cells were washed with PBS and stained with Live/Dead Fixable Aqua Dead Cell stain (Thermo-Fisher). Following the live/dead stain, cells were blocked using Biotin-Free Fc Receptor Blocker (Accurate Chemical & Scientific Corp). Extracellular cellular flow panel (1 μL/antibody per well in 50 μL) consisted of CD3 PerCP-Cy5.5 (Biolegend), CD4 BV421 (Biolegend), and CD8 APC-Cy7 (Biolegend). After extracellular staining, cells were fixed using Foxp3/fTranscription Factor Staining Buffer Set (eBioscience) and stained for intracellular proteins (1:50 dilution) using TNFα FITC (R&D Systems) and IFNγ BV785 (Biolegend). Cells were washed and resuspended in stain buffer and analyzed using a BD Celesta flow cytometer.
Flow cytometry cell staining analysis was completed using FlowJo v10. Cells were gated on live, singlet, CD3+ cells. The CD8+ and CD4+ T cells were analyzed for TNFα/IFNγ expression and the frequency of double positive TNFα/IFNγ CD8+ and the frequency of double positive TNFα/IFNγ CD4+ T cells were recorded. Responses were assessed to be positive when the frequency of double positive TNFα/IFNγ CD8+ or TNFα/IFNγ CD4+ T cells due to stimulation with an experimental peptide pool was increased greater than or equal to 3-fold over the DMSO only negative control for that donor and at least 0.01%.
Overlapping 15-mer peptides were designed to span each neoantigen incorporated into NeoGAd20 and NeoMVA to assess their ability to activate T cells using the exogenous autologous normal donor restimulation assay described in Example 1 as pools using TNFα and IFNγ production by CD8^+ and CD4^+ T cells as a readout.
Immunogenicity of various additional identified neoantigens was assessed. Overlapping 15-mer peptides were designed to span each neoantigen similarly to what was done in Example 11 to assess their ability to activate T cells using the exogenous autologous normal donor restimulation assay described in Example 1 as pools using TNFα and IFNγ production by CD8^+ and CD4^+ T cells as a readout.

Substance: CGASACDVSLIAMDSA (listed as Homo sapiens) [FUS1, SLC45A3->ELK4 gene fusion]
- Maximum Fold Change Over Background CD4+ cells: 8.33
- Maximum Fold Change Over Background CD8+ cells: 1.94
- Maximum Frequency of TNFα/IFNγ Double Positive CD4+ T cells: 0.100
- Maximum Frequency of TNFα/IFNγ Double Positive CD8+ T cells: 0.031

Substance: KMHFSLKEHPPPPCPP (listed as Homo sapiens) [FUS19, GTF2F1->PSPN gene fusion]
- Maximum Fold Change Over Background CD4+ cells: 3.15
- Maximum Fold Change Over Background CD8+ cells: 1.88
- Maximum Frequency of TNFα/IFNγ Double Positive CD4+ T cells: 0.013
- Maximum Frequency of TNFα/IFNγ Double Positive CD8+ T cells: 0.030

Substance: MS2 (TDIVKQSV; listed as Homo sapiens)
- Max. Fold Change over background CD4+ TNFαINFγ double positive DP: 15.12
- Max. Fold Change over background CD8+ TNFαINFγ double positive DP: 36.92
- Max. Frequency of CD4+ TNFαINFγ DP: 0.1
- Max. Frequency of CD8+ TNFαINFγ DP: 0.48

Substance: PVPTATPGVRSVTSPQGLGLFLKFI (listed as Homo sapiens) [AS9, CACNA1D alternative splicing]
- Max. Fold Change over background CD4+ TNFαINFγ double positive DP: 4.18
- Max. Fold Change over background CD8+ TNFαINFγ double positive DP: 3.81
- Max. Frequency of CD4+ TNFαINFγ DP: 0.16
- Max. Frequency of CD8+ TNFαINFγ DP: 0.12

Substance: GLNLNTDRPGGYSYSIWWKNNAKNR (listed as Homo sapiens) [AS17, MPHOSPH9 alternative splicing]
- Max. Fold Change over background CD4+ TNFαINFγ double positive DP: 3.18
- Max. Fold Change over background CD8+ TNFαINFγ double positive DP: 2.38
- Max. Frequency of CD4+ TNFαINFγ DP: 0.01
- Max. Frequency of CD8+ TNFαINFγ DP: 0.07

Substance: LQERMELLACGAERGAGGWGGGGGGGGGDRRGGGGSAPALADFAGGRG (listed as Homo sapiens) [FUS24, DMPK->SIX5 gene fusion]
- Max. Fold Change over background CD4+ TNFαINFγ double positive DP: 4.4
- Max. Fold Change over background CD8+ TNFαINFγ double positive DP: 8.53
- Max. Frequency of CD4+ TNFαINFγ DP: 0.05
- Max. Frequency of CD8+ TNFαINFγ DP: 0.64

Substance: QQLRIFCAAMASNEDFS (listed as Homo sapiens) [FUS11, MBTPS2->YY2 gene fusion]
- Max. Fold Change over background CD4+ TNFαINFγ double positive DP: 28.57
- Max. Fold Change over background CD8+ TNFαINFγ double positive DP: 2.63
- Max. Frequency of CD4+ TNFαINFγ DP: 0.16
- Max. Frequency of CD8+ TNFαINFγ DP: 0.1

Substance: KWNKNWTATLGALTIRGHKLLCHLPHLLSSVQQTCRSSSR (listed as Homo sapiens) [AS46, SERINC5 alternative splicing]
- Max. Fold Change over background CD4+ TNFαINFγ double positive DP: 157.98
- Max. Fold Change over background CD8+ TNFαINFγ double positive DP: 11.6
- Max. Frequency of CD4+ TNFαINFγ DP: 0.29
- Max. Frequency of CD8+ TNFαINFγ DP: 0.87

Substance: P37 (MAGGVLRRLLCREPDRDGDKGASREETVVPLHIGDPVVLPGIGQCYSALF; listed as Homo sapiens) [Neoantigen P37]
- Max. Fold Change over background CD4+ TNFαINFγ double positive DP: 22.78
- Max. Fold Change over background CD8+ TNFαINFγ double positive DP: 2.05
- Max. Frequency of CD4+ TNFαINFγ DP: 0.09
- Max. Frequency of CD8+ TNFαINFγ DP: 0.13

Substance: MS9 (SALSGNSWV; listed as Homo sapiens)
- Max. Fold Change over background CD4+ TNFαINFγ double positive DP: 455.63
- Max. Fold Change over background CD8+ TNFαINFγ double positive DP: 1.38
- Max. Frequency of CD4+ TNFαINFγ DP: 1.72
- Max. Frequency of CD8+ TNFαINFγ DP: 0.1

Substance: GNTTLQQLGEASQAPSGSLIPLRLPLLWEVRG (listed as Homo sapiens) [AS16, LRRC45 alternative splicing]
- Maximum Fold Change Over Background CD4+ cells: 7.78
- Maximum Fold Change Over Background CD8+ cells: 24.17
- Maximum Frequency of TNFα/IFNγ Double Positive CD4+ T cells: 0.140
- Maximum Frequency of TNFα/IFNγ Double Positive CD8+ T cells: 0.290

Substance: TEISCCTLSSEENEYLPRPEWQLQ (listed as Homo sapiens) [FUS3, MSMB->NCOA4 gene fusion]
- Maximum Fold Change Over Background CD4+ cells: 2.75
- Maximum Fold Change Over Background CD8+ cells: 3.94
- Maximum Frequency of TNFα/IFNγ Double Positive CD4+ T cells: 0.033
- Maximum Frequency of TNFα/IFNγ Double Positive CD8+ T cells: 0.063

Substance: DYWAQKEKGSSSFLRPSC (listed as Homo sapiens) [AS7, ACSM1 alternative splicing]
- Maximum Fold Change Over Background CD4+ cells: 2.50
- Maximum Fold Change Over Background CD8+ cells: 52.60
- Maximum Frequency of TNFα/IFNγ Double Positive CD4+ T cells: 0.045
- Maximum Frequency of TNFα/IFNγ Double Positive CD8+ T cells: 2.630

Substance: FVQGKDWGLKKFIRRDF (listed as Homo sapiens) [Neoantigen M10, SPOP F133L]
- Maximum Fold Change Over Background CD4+ cells: 14.14
- Maximum Fold Change Over Background CD8+ cells: 1.89
- Maximum Frequency of TNFα/IFNγ Double Positive CD4+ T cells: 0.1
- Maximum Frequency of TNFα/IFNγ Double Positive CD8+ T cells: 0.09

Substance: IARELHQFAFDLLIKSH (listed as Homo sapiens) [Neoantigen M84, AR T878A]
- Maximum Fold Change Over Background CD4+ cells: 35.84
- Maximum Fold Change Over Background CD8+ cells: 1.39
- Maximum Frequency of TNFα/IFNγ Double Positive CD4+ T cells: 0.31
- Maximum Frequency of TNFα/IFNγ Double Positive CD8+ T cells: 0.03

Substance: LTFLDFIQVTLRVMSGSQMENGSSYFFKPFSWGLGVGLSAWLCVMLT (listed as Homo sapiens) [AS1, ABCC4 alternative splicing]
- Max. Fold Change over background CD4+ TNFαINFγ double positive DP: 3.57
- Max. Fold Change over background CD8+ TNFαINFγ double positive DP: 8.15
- Max. Frequency of CD4+ TNFαINFγ DP: 0.02
- Max. Frequency of CD8+ TNFαINFγ DP: 0.11

Substance: GEVELSEGGEGQRHLAFPWACSGPGWRGVCCAAVEPA (listed as Homo sapiens) [AS32, TONSL alternative splicing]
- Max. Fold Change over background CD4+ TNFαINFγ double positive DP: 2.04
- Max. Fold Change over background CD8+ TNFαINFγ double positive DP: 3.81
- Max. Frequency of CD4+ TNFαINFγ DP: 0.08
- Max. Frequency of CD8+ TNFαINFγ DP: 0.12

Substance: LVLGVLSGHSGSRL (listed as Homo sapiens) [AS8, CACNA1D alternative splicing]
- Maximum Fold Change Over Background CD4+ cells: 4.08
- Maximum Fold Change Over Background CD8+ cells: 54.55
- Maximum Frequency of TNFα/IFNγ Double Positive CD4+ T cells: 0.049
- Maximum Frequency of TNFα/IFNγ Double Positive CD8+ T cells: 0.600

Substance: MS7 (KKDLELIL; listed as Homo sapiens)
- Max. Fold Change over background CD4+ TNFαINFγ double positive DP: 10.52
- Max. Fold Change over background CD8+ TNFαINFγ double positive DP: 6.67
- Max. Frequency of CD4+ TNFαINFγ DP: 0.09
- Max. Frequency of CD8+ TNFαINFγ DP: 0.12

Substance: P97 (GYLRMQGLMAQRLLLR; listed as Homo sapiens) [Neoantigen P97]
- Max. Fold Change over background CD4+ TNFαINFγ double positive DP: 3.14
- Max. Fold Change over background CD8+ TNFαINFγ double positive DP: 7.47
- Max. Frequency of CD4+ TNFαINFγ DP: 0.12
- Max. Frequency of CD8+ TNFαINFγ DP: 1.11
